Like-named read-outs stand apart in the source and are kept apart here.
Tests used:
[1] = in vivo; conditions: male, Sprague-Dawley, rat, plasma, po, 25 mg/kg
[2] = SD rats

Cc1cn(-c2cc(NC(=O)c3ccc4c(c3)C[C@H](N(C)c3cncnc3)C4)cc(C(F)(F)F)c2)cn1 [7f, (R)-2-(Methyl(pyrimidin-5-yl)amino)-N-(3-(4-methyl-1H-imidazol-1-yl)-5-(trifluoromethyl)phenyl)-2,3-dihydro-1H-indene-5-carboxamide] showed a bioavailability [1] of 89.9%, a T1/2 ([2]; iv 5 mg/kg) of 0.9 h and a Tmax ([2]; iv 5 mg/kg) of 0.083 h. The T1/2 ([2]; po 25 mg/kg) was 1.7 h, the Tmax ([2]; po 25 mg/kg) was 4.0 h and the “AUC(0–∞)” value ([2]; po 25 mg/kg, 25 mg/kg) was 80 535 μg/(L h).

Source: article PMC6985936, “2-Amino-2,3-dihydro-1H-indene-5-carboxamide-Based Discoidin Domain Receptor 1 (DDR1) Inhibitors: Design, Synthesis, and in Vivo Antipancreatic Cancer Efficacy” (Journal of Medicinal Chemistry, 2019)
